Assay [1] relates to primary mouse CD8+ T cells. Description: Cell proliferation after in vitro treatment of primary mouse CD8+ T cells. The class given is cell-based. The note with it: primary mouse CD8+ T cells treated on day 0, optionally activated, assessed days 1-7. As for the experimental part: FIG. 10 illustrates the results of in vitro treatment of primary mouse CD8+ T cells with Aak1 inhibitor (iAak1) on cell proliferation. Primary mouse CD8+ T cells were treated on day 0 with the indicated concentration of LP-935509 and optionally activated. Cell proliferation was assessed at days 1, 2, 3, 4, 5, 6, and 7.

In the next assay the test system is A20 tumors. Description: Growth of A20 tumors in mice. The class given is in vivo. The text has this:
FIG. 15 illustrates the results of Aak1 inhibitor (iAak1) on the growth of A20 tumors in mice. Mice were inoculated with A20 tumor cells. Treatment began ten (10) days post tumor inoculation. All mice received twice weekly IP injections of aPD1. Ten (10) mice received DMSO, and ten (10) mice received iAak1 via oral gavage daily.

In another assay the test system is EG7 cells. Description: Growth of EG7 cells in vitro. As to conditions: concentrations as high as 2 μM; listed as iAak1. The class given is cell-based. The source says:
FIG. 14 illustrates the results of Aak1 inhibitor (iAak1) on growth of EG7 cells in vitro.

The test system of assay [2] is primary mouse CD8+ T cells. Description: PD-1 expression after in vitro treatment of primary mouse CD8+ T cells. The class given is cell-based. As to conditions: activated primary mouse CD8+ T cells, measured at days 6, 7, 8 and 9. The protocol: FIG. 9 illustrates the results of in vitro treatment of primary mouse CD8+ T cells with Aak1 inhibitor (iAak1 aka LP-935509) on PD-1 expression. Primary mouse CD8+ T cells were treated with the indicated concentration of LP-935509 and PD-1 expression was measured at days 6, 7, 8, and 9.

The subject of a further assay is EG7 tumors. Description: Growth of EG7 tumors in mice. The class given is in vivo. As to conditions: oral gavage on same days as twice weekly IP aPD1, from 3 days post inoculation, vs DMSO. The source says:
FIG. 12 illustrates the results of Aak1 inhibitor (iAak1) on the growth of EG7 tumors in mice. Mice were inoculated with EG7 tumor cells. Treatment began three (3) days post tumor inoculation. All mice received twice weekly IP injections of aPD1. Five (5) mice received DMSO, and five (5) mice received iAak1 via oral gavage on same days as aPD1 treatment.

Assay [3] has as its system primary mouse splenocytes. Description: PD-1 expression on CD8+ T cells after in vitro treatment of primary mouse splenocytes. The class given is cell-based. The note with it: mouse splenocytes treated with 2 μM iAak1 in vitro. As for the experimental part:
FIG. 11 illustrates the results of in vitro treatment of primary mouse splenocytes with Aak1 inhibitor (iAak1) on PD-1 expression. Mouse splenocytes were treated with 2 μM concentration of iAak1 and PD-1 expression was assayed in CD8+ T cells.

For assay [4], the system named is CD8+ T cells in EG7 tumor model. Description: PD-1 expression in tumor-infiltrating versus splenic CD8+ T cells in EG7 tumor model. The format is in vivo, mice. As to conditions: oral gavage with twice weekly IP aPD1, vs DMSO, listed as iAak1. The source says: FIG. 13 illustrates the results of Aak1 inhibitor (iAak1) on PD-1 expression in tumor-infiltrating versus splenic CD8+ T cells in an EG7 tumor model. Mice were inoculated with EG7 tumor cells. Treatment began three (3) days post tumor inoculation. All mice received twice weekly IP injections of aPD1. Five (5) mice received DMSO, and five (5) mice received Aak1inh via oral gavage on same days as aPD1 treatment.

“Also recorded” adds a separate entry of the source.

In the case of `COc1ncccc1-c1cnn2ccc(N3CCN(C(=O)OC(C)C)CC3)nc12` [LP-935509], the values for the cell proliferation result in assay [1] and in assay [1] (listed as iAak1) were “modest enhancement” and “modestly enhances”, respectively. Moreover, the “CD3+ T cell infiltration of the tumor” value in the assay with A20 tumors (A20 tumors, daily oral gavage with twice weekly IP aPD1, vs DMSO) is “moderate inhibit”. Further, in the assay on A20 tumors (daily oral gavage with twice weekly IP aPD1, from 10 days post inoculation, vs DMSO, listed as iAak1), the “A20 tumor growth in vivo” value is on record as “increased; also recorded: enhanced”. Also, the “EG7 cell proliferation in vitro” value in the assay on EG7 cells is recorded as “not observed to directly increase; also recorded: did not directly increase”. Besides, the PD-1 expression entry in assay [2] is “transient increase”. In addition, the “EG7 tumor growth in vivo” value in the assay on EG7 tumors was “increased”. The “PD-1 expression in CD8+ T cells” value in assay [3] is listed as “modest increase; also recorded: increases”. The “PD-1 expression in CD8+ T cells isolated from tumors” value in assay [4] is “increased”.

The record behind these values is US12195744B2, “Identification of T-cell trafficking genes and uses thereof for increasing infiltration of T-cells into solid tumors” (UNIVERSITY OF IOWA RESEARCH FOUNDATION, priority 2017, dated 2025).
